{"source": "patent US20250051327A1", "about": "“MALT-1 MODULATORS” (EXSCIENTIA AI LIMITED, priority 2020, published 2025)", "key": {"[1]": {"target": "Recombinant human MALT-1 (amino acids 340-824) (Homo sapiens (Human), UniProt Q9UDY8)", "sequence (Q9UDY8 340-824)": "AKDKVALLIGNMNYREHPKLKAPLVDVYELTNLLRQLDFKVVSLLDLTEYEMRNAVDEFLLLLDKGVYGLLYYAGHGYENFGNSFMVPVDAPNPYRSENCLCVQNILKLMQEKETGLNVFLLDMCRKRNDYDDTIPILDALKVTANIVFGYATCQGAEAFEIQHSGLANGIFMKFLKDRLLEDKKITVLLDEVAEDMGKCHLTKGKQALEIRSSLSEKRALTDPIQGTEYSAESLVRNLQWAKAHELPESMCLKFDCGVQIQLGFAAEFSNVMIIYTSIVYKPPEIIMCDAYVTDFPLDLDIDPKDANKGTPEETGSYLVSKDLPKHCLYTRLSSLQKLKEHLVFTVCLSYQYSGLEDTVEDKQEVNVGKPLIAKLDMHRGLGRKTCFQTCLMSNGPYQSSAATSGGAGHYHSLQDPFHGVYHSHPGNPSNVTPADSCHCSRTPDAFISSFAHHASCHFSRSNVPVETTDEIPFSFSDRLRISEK", "experiment": "MALT-1 inhibition assay (fluorogenic substrate Ac-LRSR-Rh110-DP)", "type": "biochemical", "settings": "recombinant human MALT-1, substrate Ac-LRSR-Rh110-DP", "procedure,_shortened": "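Reactions were started with fluorogenic substrate Ac-LRSR-Rh110-DP (10 μM final) against 3 nM enzyme and kept dark at 25° C for 60 minutes. IC50 values came from 4-parameter logistic fits of percent inhibition calculated from relative fluorescence units.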"}, "[2]": {"test_system": "IL-2 secretion by human effector memory T cells (TEM)", "experiment": "Effector memory T cells IL-2 release assay", "type": "cell-based", "settings": "T-cell; human CD4+ effector memory T cells, CD3/CD28 bead stimulation, 24 h; read-out: CD4TC IL2 IC50", "procedure,_shortened": "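Human CD4+ effector memory T cells from healthy-donor buffy coats were stimulated with anti-CD3/CD28 Dynabeads and exposed to 10 semi-log compound doses (0.1% DMSO) for 24 h at 37 °C. Supernatant IL-2 was measured by HTRF, and IC50 came from a 4-parameter logistic fit to maximal IL-2. Viability was checked by flow cytometry.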"}}}
{"smiles": "CN(C(=O)C1CC2(C1)CS(=O)(=O)C2)[C@@H](c1ccc(N2CCCc3c2cnc2cc(Cl)nn32)cc1)C(F)(F)F", "note": "[CPD0072937, N-[(1S)-1-(4-{4-chloro-2,3,7,10-tetraazatricyclo[7.4.0.0^2,6]trideca-1(9),3,5,7-tetraen-10-yl}phenyl)-2,2,2-trifluoroethyl]-N-methyl-2,2-dioxo-2λ^6-thiaspiro[3.3]heptane-6-carboxamide]", "values": [{"measurement": "IC50", "setting": "[1]", "value": 75, "unit": "nM"}, {"measurement": "IC50", "setting": "[2]", "value": 93, "unit": "nM"}]}
{"smiles": "CN(C(=O)[C@H]1C[C@H](C(=O)O)C1)[C@@H](c1ccc(N2CCCc3c2cnc2cc(Cl)nn32)cc1)C(F)(F)F", "note": "[CPD0072439, (trans)-3-{[(1S)-1-(4-{4-chloro-2,3,7,10-tetraazatricyclo[7.4.0.0^2,6]trideca-1(9),3,5,7-tetraen-10-yl}phenyl)-2,2,2-trifluoroethyl](methyl)carbamoyl}cyclobutane-1-carboxylic acid]", "values": [{"measurement": "IC50", "setting": "[1]", "value": 35, "unit": "nM"}, {"measurement": "IC50", "setting": "[2]", "value": 557, "unit": "nM"}]}
{"smiles": "CN(C(=O)CN1C(=O)COC1=O)[C@@H](c1ccc(N2CCCc3c2cnc2cc(Cl)nn32)cc1)C(F)(F)F", "note": "[CPD0073237, N-[(1S)-1-(4-{4-chloro-2,3,7,10-tetraazatricyclo[7.4.0.0^2,6]trideca-1(9),3,5,7-tetraen-10-yl}phenyl)-2,2,2-trifluoroethyl]-2-(2,4-dioxo-1,3-oxazolidin-3-yl)-N-methylacetamide]", "values": [{"measurement": "IC50", "setting": "[1]", "value": 174, "unit": "nM"}, {"measurement": "IC50", "setting": "[2]", "value": 513, "unit": "nM"}]}
{"smiles": "CN(C(=O)C1CCS(=O)(=O)CC1)[C@@H](c1ccc(N2CCCc3c2cnc2cc(Cl)nn32)cc1)C(F)F", "note": "[CPD0073041, N-[(1S)-1-(4-{4-chloro-2,3,7,10-tetraazatricyclo[7.4.0.0^2,6]trideca-1(9),3,5,7-tetraen-10-yl}phenyl)-2,2-difluoroethyl]-N-methyl-1,1-dioxo-1λ^6-thiane-4-carboxamide]", "values": [{"measurement": "IC50", "setting": "[1]", "value": 432, "unit": "nM"}, {"measurement": "IC50", "setting": "[2]", "value": 5780, "unit": "nM"}]}
{"smiles": "Cc1ncc(C(=O)N(C)[C@@H](c2ccc(N3CCCc4c3cnc3cc(Cl)nn43)cc2)C(F)(F)F)s1", "note": "[CPD0019348, N-[(1S)-1-(4-{4-chloro-2,3,7,10-tetraazatricyclo[7.4.0.0^2,6]trideca-1(9),3,5,7-tetraen-10-yl}phenyl)-2,2,2-trifluoroethyl]-N,2-dimethyl-1,3-thiazole-5-carboxamide]", "values": [{"measurement": "IC50", "setting": "[1]", "value": 193, "unit": "nM"}, {"measurement": "IC50", "setting": "[2]", "value": 157, "unit": "nM"}]}
{"smiles": "CN(C(=O)[C@H]1CC[S@@+]([O-])CC1)[C@@H](c1ccc(N2CCCc3c2cnc2cc(Cl)nn32)cc1)C(F)(F)F", "note": "(relative stereo) [CPD0022136, (1rel-s,4rel-s)-N-[(1S)-1-(4-{4-chloro-2,3,7,10-tetraazatricyclo[7.4.0.0^2,6]trideca-1(9),3,5,7-tetraen-10-yl}phenyl)-2,2,2-trifluoroethyl]-N-methyl-1-oxo-1λ^4-thiane-4-carboxamide]", "values": [{"measurement": "IC50", "setting": "[1]", "value": 45, "unit": "nM"}, {"measurement": "IC50", "setting": "[2]", "value": 106, "unit": "nM"}]}
{"smiles": "CN(C(=O)Cc1ccccc1O)[C@@H](c1ccc(N2CCCc3c2cnc2cc(Cl)nn32)cc1)C(F)(F)F", "note": "[CPD0019350, N-[(1S)-1-(4-{4-chloro-2,3,7,10-tetraazatricyclo[7.4.0.0^2,6]trideca-1(9),3,5,7-tetraen-10-yl}phenyl)-2,2,2-trifluoroethyl]-2-(2-hydroxyphenyl)-N-methylacetamide]", "values": [{"measurement": "IC50", "setting": "[1]", "value": 70, "unit": "nM"}, {"measurement": "IC50", "setting": "[2]", "value": 103, "unit": "nM"}]}
{"smiles": "CN(C(=O)c1cncn1C)[C@@H](c1ccc(N2CCCc3c2cnc2cc(Cl)nn32)cc1)C(F)(F)F", "note": "[CPD0019344, N-[(1S)-1-(4-{4-chloro-2,3,7,10-tetraazatricyclo[7.4.0.0^2,6]trideca-1(9),3,5,7-tetraen-10-yl}phenyl)-2,2,2-trifluoroethyl]-N,1-dimethyl-1H-imidazole-5-carboxamide]", "values": [{"measurement": "IC50", "setting": "[1]", "value": 213, "unit": "nM"}, {"measurement": "IC50", "setting": "[2]", "value": 295, "unit": "nM"}]}
{"smiles": "CN(C(=O)CC1CCS(=O)(=O)CC1)[C@@H](c1ccc(N2CCCc3c2cnc2cc(Cl)nn32)cc1)C(F)(F)F", "note": "[CPD0073088]", "values": [{"measurement": "IC50", "setting": "[1]", "value": 91, "unit": "nM"}, {"measurement": "IC50", "setting": "[2]", "value": 142, "unit": "nM"}]}
